Laboratory results as given in paper PMC3742014 (Journal of medicinal chemistry, 2010).

Columns and labels:
[1] = biological target: E. coli MTAN (Escherichia coli, UniProt P0AF12); assay: Inhibition of E. coli MTAN, xanthine oxidase-coupled enzyme assay; assay type: biochemical; conditions: Km of MTA over Ki of the inhibitor
[2] = biological target: T1, human MTAP (Homo sapiens, UniProt Q13126); assay type: biochemical; conditions: for Km/Ki ratio for human MTAP: Km of MTA over Ki of the inhibitor
T1 sequence (Q13126 1-283): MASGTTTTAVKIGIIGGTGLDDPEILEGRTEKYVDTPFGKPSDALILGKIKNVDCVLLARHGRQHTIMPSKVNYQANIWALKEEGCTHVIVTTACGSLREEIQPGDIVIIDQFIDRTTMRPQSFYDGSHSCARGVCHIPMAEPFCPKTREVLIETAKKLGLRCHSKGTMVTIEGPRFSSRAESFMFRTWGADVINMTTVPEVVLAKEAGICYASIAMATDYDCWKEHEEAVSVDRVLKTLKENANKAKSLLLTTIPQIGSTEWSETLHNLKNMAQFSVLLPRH

Chain of E. coli MTAN (P0AF12 whole entry): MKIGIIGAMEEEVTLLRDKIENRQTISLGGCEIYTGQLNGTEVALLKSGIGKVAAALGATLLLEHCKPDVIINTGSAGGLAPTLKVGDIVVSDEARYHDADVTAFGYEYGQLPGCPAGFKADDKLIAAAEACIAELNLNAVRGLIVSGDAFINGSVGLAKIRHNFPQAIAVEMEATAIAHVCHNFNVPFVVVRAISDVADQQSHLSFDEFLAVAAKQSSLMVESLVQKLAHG

In the case of CC[C@H]1CN(Cc2c[nH]c3c(N)ncnc23)C[C@@H]1O (racemic) [(±)-28, (±)-trans-1-[(9-Deaza-adenin-9-yl)methyl]-4-ethyl-3-hydroxypyrrolidine], the “Km/Ki ratio for E. coli MTAN” value [1] is reported as 512 and the “Better competitor for the catalytic site of human MTAP than for E. coli MTAN, factor” value ([2]; from the Km/Ki ratios) is reported as 6.

Nc1ncnc2c(CN3C[C@H](CCCSCc4ccccc4)[C@@H](O)C3)c[nH]c12 (racemic) [(±)-57, (±)-trans-4-[3-(Benzylthio)propyl]-1-[(9-deaza-adenin-9-yl)methyl]-3-hydroxypyrrolidine] was tested, and the “Km/Ki ratio for E. coli MTAN” value [1] was 7963 and the “Km/Ki ratio for human MTAP” value [2] was 74.

In the case of C=CC[C@H]1CN(Cc2c[nH]c3c(N)ncnc23)C[C@@H]1O (racemic) [(±)-41, (±)-trans-4-Allyl-1-[(9-deaza-adenin-9-yl)methyl]-3-hydroxypyrrolidine], the “Km/Ki ratio for E. coli MTAN” value [1] is reported as 1228 and the “Km/Ki ratio for human MTAP” value [2] is reported as 1759.

C=C[C@H]1CN(Cc2c[nH]c3c(N)ncnc23)C[C@@H]1O (racemic) [(±)-40, (±)-trans-1-[(9-Deaza-adenin-9-yl)methyl]-3-hydroxy-4-vinylpyrrolidine] was tested, and the “Km/Ki ratio for E. coli MTAN” value [1] was 662 and the “Km/Ki ratio for human MTAP” value [2] was 1649.
